For the assay, the target named is human PCSK9 (Homo sapiens, UniProt Q8NBP7). The assay is described as follows: PCSK9 ligand binding TR-FRET assay (interference with binding of human PCSK9 to human LDLR). The following applies: for Max % inhibition: PCSK9 FRET assay, efficacy (Amax), 100% = 1 uM unlabeled human PCSK9, 0% = DMSO; for IC50: TR-FRET, human PCSK9 Alexa Fluor 647 / human LDLR extracellular domain-Europium Kryptate, read-out: PCSK9 FRET Assay IC50. The essentials: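 Threefold compound dilutions were pre-incubated 30 min with PCSK9, after which 4 nM Europium Kryptate-tagged human LDLR ectodomain was added for a further 2 h.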
Sequence of human PCSK9 (Q8NBP7 153-692): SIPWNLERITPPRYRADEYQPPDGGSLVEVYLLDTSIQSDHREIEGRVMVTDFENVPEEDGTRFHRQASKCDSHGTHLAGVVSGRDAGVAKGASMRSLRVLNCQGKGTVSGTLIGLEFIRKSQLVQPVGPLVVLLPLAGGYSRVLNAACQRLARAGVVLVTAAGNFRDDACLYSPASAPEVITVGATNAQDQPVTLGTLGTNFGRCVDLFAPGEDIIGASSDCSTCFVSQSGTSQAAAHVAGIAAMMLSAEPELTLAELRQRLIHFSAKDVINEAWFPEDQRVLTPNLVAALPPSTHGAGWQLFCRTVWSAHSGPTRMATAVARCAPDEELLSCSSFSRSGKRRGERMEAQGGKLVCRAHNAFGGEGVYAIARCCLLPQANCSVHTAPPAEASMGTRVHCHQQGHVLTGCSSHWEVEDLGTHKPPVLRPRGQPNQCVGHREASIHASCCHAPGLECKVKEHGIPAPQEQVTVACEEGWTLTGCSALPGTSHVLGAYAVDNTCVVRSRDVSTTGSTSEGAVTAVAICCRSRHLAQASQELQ
Sequence of human PCSK9 (Q8NBP7 31-152 partner limits assumed): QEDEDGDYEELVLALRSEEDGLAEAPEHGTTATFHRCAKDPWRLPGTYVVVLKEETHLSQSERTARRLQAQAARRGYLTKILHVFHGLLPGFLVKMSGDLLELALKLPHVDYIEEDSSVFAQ

Take `COC[C@@H]1NC(=O)[C@H](C)N(Cc2ccc(Cl)cc2Oc2ccc(-c3cnc(CN(C)C)n3C)cc2)C(=O)CC(Cn2ccccc2=O)C(=O)N(C)[C@H]2CCCC[C@@H]2NC(=O)C[C@H](Cc2ccc(Cl)cc2)N(C)C1=O` (stereo partly drawn) [Compound 276, (4S,7S,10S,16aS,20aS)-11-(4-chloro-2-(4-(2-((dimethylamino)methyl)-1-methyl-1H-imidazol-5-yl)phenoxy)benzyl)-4-(4-chlorobenzyl)-7-(methoxymethyl)-5,10,16-trimethyl-14-((2-oxopyridin-1(2H)-yl)methyl)hexadecahydrobenzo[l][1,4,7,11,14]pentaazacyclooctadecine-2,6,9,12,15(3H)-pentaone]: the Max % inhibition was found to be 101.53% and the 50% inhibitory concentration (IC50) worked out at 16.4 nM.

Turning to `C=CC[C@@H]1CC(=O)N(Cc2ccc(Cl)cc2Oc2ccc(-c3cnc(CN(C)C)n3C)cc2)[C@@H](CCCN2CCOCC2)C(=O)N[C@@H](COC)C(=O)N(C)[C@@H](Cc2ccc(Cl)cc2)CC(=O)N[C@H]2CCCC[C@@H]2N(C)C1=O` [Compound 277, (4S,7S,10S,14R,16aS,20aS)-14-allyl-11-(4-chloro-2-(4-(2-((dimethylamino)methyl)-1-methyl-1H-imidazol-5-yl)phenoxy)benzyl)-4-(4-chlorobenzyl)-7-(methoxymethyl)-5,16-dimethyl-10-(3-morpholinopropyl)hexadecahydrobenzo[l][1,4,7,11,14]pentaazacyclooctadecine-2,6,9,12,15(3H)-pentaone], the Max % inhibition turned out to be 83.22% and the IC50 was determined as 2.5 nM.

As for `Cc1c(CN(C)C)ncn1-c1ccc(Oc2cc(Cl)ccc2CN2C(=O)C[C@@H](Cc3ccccc3)C(=O)N(C)[C@H]3CCCC[C@@H]3NC(=O)C[C@H](Cc3ccc(Cl)cc3)N(C)C(=O)[C@H](CO)NC(=O)[C@@H]2C)cc1` [Compound 278, (4S,7S,10S,14R,16aS,20aS)-14-benzyl-11-(4-chloro-2-(4-(4-((dimethylamino)methyl)-5-methyl-1H-imidazol-1-yl)phenoxy)benzyl)-4-(4-chlorobenzyl)-7-(hydroxymethyl)-5,10,16-trimethylhexadecahydrobenzo[l][1,4,7,11,14]pentaazacyclooctadecine-2,6,9,12,15(3H)-pentaone], the Max % inhibition is reported as 107.17% and the IC50 is 1.3 nM.

With `COC[C@@H]1NC(=O)[C@H](C)N(Cc2ccc(Cl)cc2Oc2ccc(-c3cnc(CN(C)C)n3C)cc2)C(=O)C[C@@H](Cc2cccnc2)C(=O)N(C)[C@H]2CCCC[C@@H]2NC(=O)C[C@H](Cc2ccc(Cl)cc2)N(C)C1=O` [Compound 280, (4S,7S,10S,14R,16aS,20aS)-11-(4-chloro-2-(4-(2-((dimethylamino)methyl)-1-methyl-1H-imidazol-5-yl)phenoxy)benzyl)-4-(4-chlorobenzyl)-7-(methoxymethyl)-5,10,16-trimethyl-14-(pyridin-3-ylmethyl)hexadecahydrobenzo[l][1,4,7,11,14]pentaazacyclooctadecine-2,6,9,12,15(3H)-pentaone], the Max % inhibition is 100.09% and the IC50 was 0.6 nM.

On to `COC[C@@H]1NC(=O)[C@H](C)N(Cc2ccc(Cl)cc2Oc2ccc(-c3cnc(CN4CCCC4)n3C)c(C)c2)C(=O)C[C@@H](Cc2ccccc2)C(=O)N(C)[C@@H](C)CNC(=O)C[C@H](Cc2ccc(Cl)cc2)N(C)C1=O` [Compound 281, (2S,5S,8S,13S,16R)-16-benzyl-1-(4-chloro-2-(3-methyl-4-(1-methyl-2-(pyrrolidin-1-ylmethyl)-1H-imidazol-5-yl)phenoxy)benzyl)-8-(4-chlorobenzyl)-5-(methoxymethyl)-2,7,13,14-tetramethyl-1,4,7,11,14-pentaazacyclooctadecane-3,6,10,15,18-pentaone], for which the Max % inhibition was determined as 89.62% and the IC50 was found to be 1 nM.

Regarding `C=Cc1ncc(-c2ccc(Oc3cc(Cl)ccc3CN3C(=O)C[C@@H](Cc4ccccc4)C(=O)N(C)[C@@H](C)CNC(=O)C[C@H](Cc4ccc(Cl)cc4)N(C)C(=O)[C@H](COC)NC(=O)[C@@H]3C)cc2)n1C` [Compound 282, (2S,5S,8S,13S,16R)-16-benzyl-1-(4-chloro-2-(4-(1-methyl-2-vinyl-1H-imidazol-5-yl)phenoxy)benzyl)-8-(4-chlorobenzyl)-5-(methoxymethyl)-2,7,13,14-tetramethyl-1,4,7,11,14-pentaazacyclooctadecane-3,6,10,15,18-pentaone], the Max % inhibition worked out at 60.78% and the IC50 was determined as 6.1 nM.

For the molecule `COC[C@@H]1NC(=O)[C@H](CCCN2CCOCC2)N(Cc2ccc(Cl)cc2Oc2ccc(-c3cnc(CN(C)C)n3C)cc2)C(=O)C[C@@H](Cc2ccccc2)C(=O)N(C)[C@@H](C)[C@H](C)NC(=O)C[C@H](Cc2ccc(Cl)cc2)N(C)C1=O` [Compound 283, (2S,5S,8S,12S,13S,16R)-16-benzyl-1-(4-chloro-2-(4-(2-((dimethylamino)methyl)-1-methyl-1H-imidazol-5-yl)phenoxy)benzyl)-8-(4-chlorobenzyl)-5-(methoxymethyl)-7,12,13,14-tetramethyl-2-(3-morpholinopropyl)-1,4,7,11,14-pentaazacyclooctadecane-3,6,10,15,18-pentaone], the Max % inhibition was 105.87% and the IC50 is 1.6 nM.

Consider `COC[C@@H]1NC(=O)[C@H](C)N(Cc2ccc(Cl)cc2Oc2ccc(-c3cnc(CN(C)C)n3C)cc2)C(=O)C[C@@H](Cc2ccccn2)C(=O)N(C)[C@H]2CCCC[C@@H]2NC(=O)C[C@H](Cc2ccc(Cl)cc2)N(C)C1=O` [Compound 284, (4S,7S,10S,14R,16aS,20aS)-11-(4-chloro-2-(4-(2-((dimethylamino)methyl)-1-methyl-1H-imidazol-5-yl)phenoxy)benzyl)-4-(4-chlorobenzyl)-7-(methoxymethyl)-5,10,16-trimethyl-14-(pyridin-2-ylmethyl)hexadecahydrobenzo[l][1,4,7,11,14]pentaazacyclooctadecine-2,6,9,12,15(3H)-pentaone], for which the Max % inhibition was found to be 98.50% and the IC50 was found to be 0.9 nM.

For the molecule `COC[C@@H]1NC(=O)[C@H](CCCN(C)C)N(Cc2ccc(Cl)cc2Oc2ccc(-c3cnc(CN4CCCC4)n3C)cc2)C(=O)C[C@@H](Cc2ccccc2)C(=O)N(C)[C@H]2CCCC[C@@H]2NC(=O)C[C@H](Cc2ccc(Cl)cc2)N(C)C1=O` [Compound 285, (4S,7S,10S,14R,16aS,20aS)-14-benzyl-11-(4-chloro-2-(4-(1-methyl-2-(pyrrolidin-1-ylmethyl)-1H-imidazol-5-yl)phenoxy)benzyl)-4-(4-chlorobenzyl)-10-(3-(dimethylamino)propyl)-7-(methoxymethyl)-5,16-dimethylhexadecahydrobenzo[l][1,4,7,11,14]pentaazacyclooctadecine-2,6,9,12,15(3H)-pentaone], the Max % inhibition was determined as 90.24% and the IC50 stood at 2.1 nM.

With `CC=CC[C@@H]1CC(=O)N(Cc2ccc(Cl)cc2Oc2ccc(-c3cnc(CN(C)C)n3C)cc2)[C@@H](C)C(=O)N[C@@H](COC)C(=O)N(C)[C@@H](Cc2ccc(Cl)cc2)CC(=O)N[C@H]2CCCC[C@@H]2N(C)C1=O` [Compound 286, (4S,7S,10S,14R,16aS,20aS)-14-(but-2-en-1-yl)-11-(4-chloro-2-(4-(2-((dimethylamino)methyl)-1-methyl-1H-imidazol-5-yl)phenoxy)benzyl)-4-(4-chlorobenzyl)-7-(methoxymethyl)-5,10,16-trimethylhexadecahydrobenzo[l][1,4,7,11,14]pentaazacyclooctadecine-2,6,9,12,15(3H)-pentaone], the Max % inhibition is listed as 59.34% and the IC50 was determined as 0.7 nM.

The record behind these values is patent publication US20230089867A1, “CYCLIC PENTAMER COMPOUNDS AS PROPROTEIN CONVERTASE SUBTILISIN/KEXIN TYPE 9 (PCSK9) INHIBITORS FOR THE TREATMENT OF METABOLIC DISORDER” (Novartis AG, priority 2018, published 2023).
